# Measurements taken from patent US5321029A, “Xanthines” (Beecham-Wuelfing GmbH & Co.K.G., priority 1988, dated 1994).
# Columns and labels:
# [1] = target: c-AMP phosphodiesterase (erythrocytes); experiment: Inhibition of cyclic AMP phosphodiesterase (erythrocytes); format: biochemical; conditions: phosphodiesterase extracted from erythrocytes, phosphate buffer pH 7.4, radiochemical procedure
# Description: The procedure used was that described by Arch, J. R. S. and Newsholme, E. A. in Biochem. J. 158, 603, (1976):
# Erythrocytes were obtained from Na-citrate (16 mM; 0.1 ml/ml blood) anticoagulated blood by repeated centrifugation with removal of the buff coat and washing with an isotonic buffer (composition in mM: NaCl […], KCl 4, CACl2.2 H2 O 1.8, Na2 HPO4.12 H2 O 0.8, NaH2 PO4 0.2, MgSO4.7 H2 O 0.7, Hepes 3.4; pH 7.4).
# The phosphodiesterase was extracted by mixing the erythrocytes with 4 volumes of 7 mM phosphate buffer, pH 7.4, followed by sonification (3×10 sec; 100 W) and then centrifuging for 30 min at 4200 x g.
# All supernatants were diluted in the extraction medium and assayed for phosphodiesterase activity within 6 hours of preparation, using the radiochemical procedure described in the above mentioned reference.
# [2] = test system: hippocampal CA1 field neuronal damage; experiment: Delayed neuronal death in gerbils after transient forebrain ischaemia; format: in vivo, gerbil; conditions: 5.0 mg/kg i.p.; conclusion in words
# Description: Ischaemia was produced in adult male gerbils by occlusion of both common carotid arteries for 3 minutes under halothane/nitrous oxide anaesthesia. During surgery the animals were placed upon a warming blanket. The ischaemia led to neuronal degeneration and to disturbed brain function.
# Brains were removed 2 weeks later and 12 μm thick coronal slices were examined light microscopically for neuronal degeneration.
# Three groups of animals were used:
# 2. solvent-treated ligated controls
# 3. compound-treated ligated animals
# The compound was administered 1 hour before the ligation period.
# Means±SEM (n) of histopathological score [HPS] which reflects the degree of neuronal damage in the hippocampal CA1 field: […]
Structure (SMILES),Ki [1] [nM],Prevention of ischaemia induced neuronal degeneration [2]
"O=c1c2[nH]cnc2n(CC2CC2)c(=O)n1CC1CC1 [Example 1, 1,3-Di-cyclopropylmethyl xanthine]",5700,significantly prevented ischaemia induced neuronal degeneration
"O=c1c2[nH]cnc2n(CC2CCC2)c(=O)n1CC1CCC1 [Example 2, 1,3-Di-cyclobutylmethyl xanthine]",2200,
"O=c1c2[nH]cnc2n(CC2CCCC2)c(=O)n1CC1CCCC1 [Example 3, 1,3-Di-cyclopentylmethyl xanthine]",3700,
"O=c1c2[nH]cnc2n(CC2CCCCC2)c(=O)n1CC1CCCCC1 [Example 4, 1,3-Di-cyclohexylmethyl xanthine]",1700,
"O=c1c2[nH]cnc2n(C2CCCCC2)c(=O)n1C1CCCCC1 [Example 10, 1,3-Di-cyclohexyl xanthine]",800,
"CC(=O)Cn1cnc2c1c(=O)n(C1CCCCC1)c(=O)n2C1CCCCC1 [Example 11, 1,3-Di-cyclohexyl-7-(2-oxopropyl)-xanthine]",2400,
"O=c1c2[nH]cnc2n(C2CCC2)c(=O)n1C1CCC1 [Example 13, 1,3-Di-cyclobutyl-xanthine]",1700,
"CCCn1cnc2c1c(=O)n(CC1CC1)c(=O)n2CC1CC1 [Example 14, 1,3-Di-cyclopropylmethyl-7-n-propyl xanthine]",5270,
"O=c1c2c(ncn2CC2CC2)n(CC2CC2)c(=O)n1CC1CC1 [Example 16, 1,3,7-Tri-cyclopropylmethyl-xanthine]",2300,
"O=c1c2[nH]cnc2n(C2CCCC2)c(=O)n1CC1CC1 [Example 18, 1-(Cyclopropylmethyl)-3-cyclopentylxanthine]",8400,
"O=c1c2[nH]cnc2n(CC2CCCCC2)c(=O)n1CC1CC1 [Example 22, 1-(Cyclopropylmethyl)-3-(cyclohexylmethyl)xanthine]",23000,

# Continued, in another order:
Ki [1] [nM],Structure (SMILES),Prevention of ischaemia induced neuronal degeneration [2]
1400,"CC(=O)Cn1cnc2c1c(=O)n(CC1CC1)c(=O)n2CC1CC1 [Example 5, 1,3-Di-cyclopropylmethyl-7-(2-oxopropyl)-xanthine]",
150,"CC(=O)Cn1cnc2c1c(=O)n(CC1CCC1)c(=O)n2CC1CCC1 [Example 6, 1,3-Di-cyclobutylmethyl-7-(2-oxopropyl)-xanthine]",
1300,"CC(=O)Cn1cnc2c1c(=O)n(CC1CCCC1)c(=O)n2CC1CCCC1 [Example 7, 1,3-Di-cyclopentylmethyl-7-(2-oxopropyl)-xanthine]",
2300,"CC(=O)Cn1cnc2c1c(=O)n(CC1CCCCC1)c(=O)n2CC1CCCCC1 [Example 8, 1,3-Di-cyclohexylmethyl-7-(2-oxopropyl)-xanthine]",
26600,"CC(O)Cn1cnc2c1c(=O)n(CC1CCCC1)c(=O)n2CC1CCCC1 (stereo not drawn) [Example 9, 1,3-Di-cyclopentylmethyl-7-(2-hydroxypropyl)-xanthine]",
13500,"CC(O)Cn1cnc2c1c(=O)n(CC1CCC1)c(=O)n2CC1CCC1 (stereo not drawn) [Example 12, 1,3-Di-cyclobutylmethyl-7-(2-hydroxypropyl)-xanthine]",
2400,"CCCn1cnc2c1c(=O)n(CC1CCC1)c(=O)n2CC1CCC1 [Example 15, 1,3-Di-cyclobutylmethyl-7-n-propyl xanthine]",
2300,"CC(=O)Cn1cnc2c1c(=O)n(CC1CC1)c(=O)n2CC1CCCCC1 [Example 19, 1-(Cyclopropylmethyl)-3-(cyclohexylmethyl)-7-(2-oxopropyl)xanthine]",
2000,"CC(=O)Cn1cnc2c1c(=O)n(CC1CC1)c(=O)n2C1CCCC1 [Example 20, 1-(Cyclopropylmethyl)-3-cyclopentyl-7-(2-oxopropyl)-xanthine]",
